Source: patent publication US20240286998A1, “F[…], ANALOGUES THEREOF, AND METHODS USING SAME” (Saint Joseph's University, priority 2021, published 2024)

Each compound was assayed against 5-HT2A (Homo sapiens (Human), UniProt P28223) (assay: 5-HT2A Gq-mediated calcium flux functional assay). Settings: not given.
Assay type: cell-based

Row | SMILES | EC50 [nM]
1 | C=CCN(CCc1c[nH]c2ccc(F)cc12)C(C)C [Example 11, N-(2-(5-fluoro-1H-indol-3-yl)ethyl)-N-isopropylprop-2-en-1-amine] | 0.617
2 | CCCN(CC)CCc1c[nH]c2c(F)c(F)ccc12 [compound 82, N-(2-(6,7-difluoro-1H-indol-3-yl)ethyl)-N-ethylpropan-1-amine] | 10.5
3 | CCCN(CC)CCc1c[nH]c2c(F)c(F)c(F)cc12 [compound 165, N-ethyl-N-[2-(5,6,7-trifluoro-1H-indol-3-yl)ethyl]propan-1-amine] | 4.57
4 | CCC(C)N(CCc1c[nH]c2ccc(F)cc12)C1CC1 (centres unmarked) [compound 172, N-(sec-butyl)-N-(2-(5-fluoro-1H-indol-3-yl)ethyl)cyclopropanamine] | 3.98
5 | Fc1ccc2[nH]cc(CCN(C3CCC3)C3CC3)c2c1 [compound 173, N-cyclopropyl-N-(2-(5-fluoro-1H-indol-3-yl)ethyl)cyclobutanamine] | 7.24
6 | CCN(C)CCc1c[nH]c2c(Br)cc(F)cc12 [compound 174, 2-(7-bromo-5-fluoro-1H-indol-3-yl)-N-ethyl-N-methylethan-1-amine] | 18.6
7 | CCN(C)CCc1c[nH]c2cc(C)c(F)cc12 [compound 175, N-ethyl-2-(5-fluoro-6-methyl-1H-indol-3-yl)-N-methylethan-1-amine] | 6.76
8 | C#CCN(CCc1c[nH]c2ccc(F)cc12)C(C)CC (centres unmarked) [compound 176, N-(2-(5-fluoro-1H-indol-3-yl)ethyl)-N-(prop-2-yn-1-yl)butan-2-amine] | 40.7

Same assay, conditions: IA = Inactive; N=1-3

Row | SMILES | 5-HT2A-Ca2+ FLUX Emax (% 5-HT)
9 | C=CCN(CCc1c[nH]c2ccc(F)cc12)C(C)C [Example 11, N-(2-(5-fluoro-1H-indol-3-yl)ethyl)-N-isopropylprop-2-en-1-amine] | 105.4 ± 2.1
10 | CCCN(CC)CCc1c[nH]c2c(F)c(F)ccc12 [compound 82, N-(2-(6,7-difluoro-1H-indol-3-yl)ethyl)-N-ethylpropan-1-amine] | 90.4 ± 0.7
11 | CCCN(CC)CCc1c[nH]c2c(F)c(F)c(F)cc12 [compound 165, N-ethyl-N-[2-(5,6,7-trifluoro-1H-indol-3-yl)ethyl]propan-1-amine] | 103.0 ± 0.8
12 | CCC(C)N(CCc1c[nH]c2ccc(F)cc12)C1CC1 (centres unmarked) [compound 172, N-(sec-butyl)-N-(2-(5-fluoro-1H-indol-3-yl)ethyl)cyclopropanamine] | 94.0 ± 0.6
13 | Fc1ccc2[nH]cc(CCN(C3CCC3)C3CC3)c2c1 [compound 173, N-cyclopropyl-N-(2-(5-fluoro-1H-indol-3-yl)ethyl)cyclobutanamine] | 87.4 ± 0.7
14 | CCN(C)CCc1c[nH]c2c(Br)cc(F)cc12 [compound 174, 2-(7-bromo-5-fluoro-1H-indol-3-yl)-N-ethyl-N-methylethan-1-amine] | 38.2 ± 1.4
15 | CCN(C)CCc1c[nH]c2cc(C)c(F)cc12 [compound 175, N-ethyl-2-(5-fluoro-6-methyl-1H-indol-3-yl)-N-methylethan-1-amine] | 48.6 ± 2.8
16 | C#CCN(CCc1c[nH]c2ccc(F)cc12)C(C)CC (centres unmarked) [compound 176, N-(2-(5-fluoro-1H-indol-3-yl)ethyl)-N-(prop-2-yn-1-yl)butan-2-amine] | 97.8 ± 1.1

The compounds below were run against 5-HT2C (Homo sapiens (Human), UniProt P28335) (assay: 5-HT2C Gq-mediated calcium flux functional assay). Settings: not given.
Assay type: cell-based

Sequence of 5-HT2C (P28335 whole entry, looked up): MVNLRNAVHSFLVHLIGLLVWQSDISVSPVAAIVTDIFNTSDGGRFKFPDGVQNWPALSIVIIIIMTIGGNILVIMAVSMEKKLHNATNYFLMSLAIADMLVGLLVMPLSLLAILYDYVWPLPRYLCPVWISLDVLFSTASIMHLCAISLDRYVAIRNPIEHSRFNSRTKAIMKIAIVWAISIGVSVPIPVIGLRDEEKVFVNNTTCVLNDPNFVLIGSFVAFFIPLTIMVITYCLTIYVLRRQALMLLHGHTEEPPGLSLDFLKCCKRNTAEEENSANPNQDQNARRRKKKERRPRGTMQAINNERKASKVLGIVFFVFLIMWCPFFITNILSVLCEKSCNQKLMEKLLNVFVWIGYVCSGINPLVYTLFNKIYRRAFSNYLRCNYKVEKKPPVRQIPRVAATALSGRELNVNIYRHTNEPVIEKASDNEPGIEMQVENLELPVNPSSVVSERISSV

Row | SMILES | EC50 [nM]
17 | C=CCN(CCc1c[nH]c2ccc(F)cc12)C(C)C [Example 11, N-(2-(5-fluoro-1H-indol-3-yl)ethyl)-N-isopropylprop-2-en-1-amine] | 20.4
18 | CCCN(CC)CCc1c[nH]c2c(F)c(F)ccc12 [compound 82, N-(2-(6,7-difluoro-1H-indol-3-yl)ethyl)-N-ethylpropan-1-amine] | 195
19 | CCCN(CC)CCc1c[nH]c2c(F)c(F)c(F)cc12 [compound 165, N-ethyl-N-[2-(5,6,7-trifluoro-1H-indol-3-yl)ethyl]propan-1-amine] | 38.9
20 | CCC(C)N(CCc1c[nH]c2ccc(F)cc12)C1CC1 (centres unmarked) [compound 172, N-(sec-butyl)-N-(2-(5-fluoro-1H-indol-3-yl)ethyl)cyclopropanamine] | 151
21 | Fc1ccc2[nH]cc(CCN(C3CCC3)C3CC3)c2c1 [compound 173, N-cyclopropyl-N-(2-(5-fluoro-1H-indol-3-yl)ethyl)cyclobutanamine] | 302
22 | CCN(C)CCc1c[nH]c2c(Br)cc(F)cc12 [compound 174, 2-(7-bromo-5-fluoro-1H-indol-3-yl)-N-ethyl-N-methylethan-1-amine] | 13.2
23 | CCN(C)CCc1c[nH]c2cc(C)c(F)cc12 [compound 175, N-ethyl-2-(5-fluoro-6-methyl-1H-indol-3-yl)-N-methylethan-1-amine] | 102
24 | C#CCN(CCc1c[nH]c2ccc(F)cc12)C(C)CC (centres unmarked) [compound 176, N-(2-(5-fluoro-1H-indol-3-yl)ethyl)-N-(prop-2-yn-1-yl)butan-2-amine] | 191

Same assay, conditions: IA = Inactive; N=1-3

Row | SMILES | 5-HT2C-Ca2+ FLUX Emax (% 5-HT)
25 | C=CCN(CCc1c[nH]c2ccc(F)cc12)C(C)C [Example 11, N-(2-(5-fluoro-1H-indol-3-yl)ethyl)-N-isopropylprop-2-en-1-amine] | 101.5 ± 2.8
26 | CCCN(CC)CCc1c[nH]c2c(F)c(F)ccc12 [compound 82, N-(2-(6,7-difluoro-1H-indol-3-yl)ethyl)-N-ethylpropan-1-amine] | 89.6 ± 1.7
27 | CCCN(CC)CCc1c[nH]c2c(F)c(F)c(F)cc12 [compound 165, N-ethyl-N-[2-(5,6,7-trifluoro-1H-indol-3-yl)ethyl]propan-1-amine] | 102.8 ± 1.7
28 | CCC(C)N(CCc1c[nH]c2ccc(F)cc12)C1CC1 (centres unmarked) [compound 172, N-(sec-butyl)-N-(2-(5-fluoro-1H-indol-3-yl)ethyl)cyclopropanamine] | 82.3 ± 1.7
29 | Fc1ccc2[nH]cc(CCN(C3CCC3)C3CC3)c2c1 [compound 173, N-cyclopropyl-N-(2-(5-fluoro-1H-indol-3-yl)ethyl)cyclobutanamine] | 80.4 ± 1.2
30 | CCN(C)CCc1c[nH]c2c(Br)cc(F)cc12 [compound 174, 2-(7-bromo-5-fluoro-1H-indol-3-yl)-N-ethyl-N-methylethan-1-amine] | 39.9 ± 1.1
31 | CCN(C)CCc1c[nH]c2cc(C)c(F)cc12 [compound 175, N-ethyl-2-(5-fluoro-6-methyl-1H-indol-3-yl)-N-methylethan-1-amine] | 51.2 ± 2.0
32 | C#CCN(CCc1c[nH]c2ccc(F)cc12)C(C)CC (centres unmarked) [compound 176, N-(2-(5-fluoro-1H-indol-3-yl)ethyl)-N-(prop-2-yn-1-yl)butan-2-amine] | 99.6 ± 1.5

What follows are compounds tested against Serotonin 5-HT2A (human) (Homo sapiens (Human), UniProt P28223) (assay: 5-HT2A receptor binding, [3H]-ketanserin competition in membrane fractions). Settings: 1 nM [3H]-ketanserin, Cheng-Prusoff, N=1-3.

Row | SMILES | 5-HT2A pKi ± SEM
33 | CCCN(CC)CCc1c[nH]c2c(F)c(F)ccc12 [compound 82, N-(2-(6,7-difluoro-1H-indol-3-yl)ethyl)-N-ethylpropan-1-amine] | 6.52
34 | CCCN(CC)CCc1c[nH]c2c(F)c(F)c(F)cc12 [compound 165, N-ethyl-N-[2-(5,6,7-trifluoro-1H-indol-3-yl)ethyl]propan-1-amine] | 6.69
35 | CCC(C)N(CCc1c[nH]c2ccc(F)cc12)C1CC1 (centres unmarked) [compound 172, N-(sec-butyl)-N-(2-(5-fluoro-1H-indol-3-yl)ethyl)cyclopropanamine] | 6.47
36 | Fc1ccc2[nH]cc(CCN(C3CCC3)C3CC3)c2c1 [compound 173, N-cyclopropyl-N-(2-(5-fluoro-1H-indol-3-yl)ethyl)cyclobutanamine] | 6.58
37 | CCN(C)CCc1c[nH]c2c(Br)cc(F)cc12 [compound 174, 2-(7-bromo-5-fluoro-1H-indol-3-yl)-N-ethyl-N-methylethan-1-amine] | 6.42
38 | CCN(C)CCc1c[nH]c2cc(C)c(F)cc12 [compound 175, N-ethyl-2-(5-fluoro-6-methyl-1H-indol-3-yl)-N-methylethan-1-amine] | 5.96
39 | C#CCN(CCc1c[nH]c2ccc(F)cc12)C(C)CC (centres unmarked) [compound 176, N-(2-(5-fluoro-1H-indol-3-yl)ethyl)-N-(prop-2-yn-1-yl)butan-2-amine] | 5.89

Each compound was assayed against 5-HT1A (Homo sapiens (Human), UniProt P08908) (assay: 5-HT1A Gi/o-mediated cAMP inhibition, GloSensor assay). Settings: not given.
Assay type: cell-based

Row | SMILES | EC50 [nM]
40 | C=CCN(CCc1c[nH]c2ccc(F)cc12)C(C)C [Example 11, N-(2-(5-fluoro-1H-indol-3-yl)ethyl)-N-isopropylprop-2-en-1-amine] | 151

Same assay, conditions: cAMP inhibition, 0.2 μM isoproterenol; IA = Inactive

Row | SMILES | 5-HT1A-cAMP Emax (% 5-HT)
41 | C=CCN(CCc1c[nH]c2ccc(F)cc12)C(C)C [Example 11, N-(2-(5-fluoro-1H-indol-3-yl)ethyl)-N-isopropylprop-2-en-1-amine] | 95.5 ± 1.7

The compounds below were run against 5-HT2B (Homo sapiens (Human), UniProt P41595) (assay: 5-HT2B Gq-mediated calcium flux functional assay). Settings: not given.
Assay type: cell-based

Sequence of 5-HT2B (P41595 whole entry): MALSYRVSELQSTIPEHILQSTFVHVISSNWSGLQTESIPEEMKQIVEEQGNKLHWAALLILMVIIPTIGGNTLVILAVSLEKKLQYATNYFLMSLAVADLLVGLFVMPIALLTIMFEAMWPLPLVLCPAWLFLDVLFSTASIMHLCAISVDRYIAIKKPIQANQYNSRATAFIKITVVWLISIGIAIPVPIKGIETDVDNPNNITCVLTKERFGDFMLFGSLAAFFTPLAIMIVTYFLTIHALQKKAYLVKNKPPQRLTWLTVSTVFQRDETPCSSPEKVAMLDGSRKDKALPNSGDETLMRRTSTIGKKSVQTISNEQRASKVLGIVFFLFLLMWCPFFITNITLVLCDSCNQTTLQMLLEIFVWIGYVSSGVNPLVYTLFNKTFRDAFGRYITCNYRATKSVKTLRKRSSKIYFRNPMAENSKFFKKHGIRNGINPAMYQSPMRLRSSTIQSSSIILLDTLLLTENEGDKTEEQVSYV

Row | SMILES | EC50 [nM]
42 | C=CCN(CCc1c[nH]c2ccc(F)cc12)C(C)C [Example 11, N-(2-(5-fluoro-1H-indol-3-yl)ethyl)-N-isopropylprop-2-en-1-amine] | 0.794
43 | CCCN(CC)CCc1c[nH]c2c(F)c(F)ccc12 [compound 82, N-(2-(6,7-difluoro-1H-indol-3-yl)ethyl)-N-ethylpropan-1-amine] | 66.1
44 | CCCN(CC)CCc1c[nH]c2c(F)c(F)c(F)cc12 [compound 165, N-ethyl-N-[2-(5,6,7-trifluoro-1H-indol-3-yl)ethyl]propan-1-amine] | 7.41
45 | CCC(C)N(CCc1c[nH]c2ccc(F)cc12)C1CC1 (centres unmarked) [compound 172, N-(sec-butyl)-N-(2-(5-fluoro-1H-indol-3-yl)ethyl)cyclopropanamine] | 6.46
46 | Fc1ccc2[nH]cc(CCN(C3CCC3)C3CC3)c2c1 [compound 173, N-cyclopropyl-N-(2-(5-fluoro-1H-indol-3-yl)ethyl)cyclobutanamine] | 17.8
47 | C#CCN(CCc1c[nH]c2ccc(F)cc12)C(C)CC (centres unmarked) [compound 176, N-(2-(5-fluoro-1H-indol-3-yl)ethyl)-N-(prop-2-yn-1-yl)butan-2-amine] | 28.8

Same assay, conditions: IA = Inactive; N=1-3

Row | SMILES | 5-HT2B-Ca2+ FLUX Emax (% 5-HT)
48 | C=CCN(CCc1c[nH]c2ccc(F)cc12)C(C)C [Example 11, N-(2-(5-fluoro-1H-indol-3-yl)ethyl)-N-isopropylprop-2-en-1-amine] | 98.8 ± 1.6
49 | CCCN(CC)CCc1c[nH]c2c(F)c(F)ccc12 [compound 82, N-(2-(6,7-difluoro-1H-indol-3-yl)ethyl)-N-ethylpropan-1-amine] | 86.3 ± 0.8
50 | CCCN(CC)CCc1c[nH]c2c(F)c(F)c(F)cc12 [compound 165, N-ethyl-N-[2-(5,6,7-trifluoro-1H-indol-3-yl)ethyl]propan-1-amine] | 102.4 ± 0.8
51 | CCC(C)N(CCc1c[nH]c2ccc(F)cc12)C1CC1 (centres unmarked) [compound 172, N-(sec-butyl)-N-(2-(5-fluoro-1H-indol-3-yl)ethyl)cyclopropanamine] | 93.5 ± 0.8
52 | Fc1ccc2[nH]cc(CCN(C3CCC3)C3CC3)c2c1 [compound 173, N-cyclopropyl-N-(2-(5-fluoro-1H-indol-3-yl)ethyl)cyclobutanamine] | 82.8 ± 0.8
53 | C#CCN(CCc1c[nH]c2ccc(F)cc12)C(C)CC (centres unmarked) [compound 176, N-(2-(5-fluoro-1H-indol-3-yl)ethyl)-N-(prop-2-yn-1-yl)butan-2-amine] | 103.0 ± 0.6
